Experimental data from the supplement of paper PMC10307832.

How the values were obtained:
Test in all cases: relative viability (nuclei count vs DMSO), 5 days (fraction); higher = more cells survive
NCI-H2170 = test system: NCI-H2170
In short: (§1)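 After 5 days of treatment, lung cancer cells in 1536-well plates were fixed and stained in a single step (final 0.05% Triton X-100, 1% formaldehyde, 1 ug/ml Hoechst) and their nuclei counted on 4× images. Treatment had been applied by pin tool the day after seeding as one drug alone or as a fixed anchor-drug dose with five library-drug doses (not always all listed) in √10 steps. Relative viability is the nuclei count of treated wells divided by that of vehicle wells, and values are medians of duplicate plates.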

NCI-H3122 = test system: NCI-H3122
In short: as §1

NCI-H1993 = test system: NCI-H1993
In short: as §1

HARA = test system: HARA
In short: as §1

NCI-H1944 = test system: NCI-H1944
In short: as §1

PC-3 [JPC-3] = test system: PC-3 [JPC-3]
In short: as §1

EMC-BAC-2 = test system: EMC-BAC-2
In short: as §1

NCI-H2228 = test system: NCI-H2228
In short: as §1

NCI-H322M = test system: NCI-H322M
In short: as §1

SK-MES-1 = test system: SK-MES-1
In short: as §1

Molecule `CC(=O)O[C@@]12CO[C@@H]1C[C@H](O)[C@@]1(C)C(=O)[C@H](O)C3=C(C)[C@@H](OC(=O)[C@H](O)[C@@H](NC(=O)OC(C)(C)C)c4ccccc4)C[C@@](O)([C@@H](OC(=O)c4ccccc4)[C@H]21)C3(C)C` [Docetaxel] + COc1cc2c(Oc3ccc(NC(=O)C4(C(=O)Nc5ccc(F)cc5)CC4)cc3F)ccnc2cc1OCCCN1CCOCC1 [Foretinib] (partner 0.25 µM) has a relative viability (NCI-H2170; first compound 0.0002 µM) of 0.995, a relative viability (NCI-H2170; first compound 0.000632 µM) of 0.962 and a relative viability (NCI-H2170; first compound 0.002 µM) of 0.754. It also gave a relative viability (NCI-H2170; first compound 0.006325 µM) of 0.232, a relative viability (NCI-H2170; first compound 0.02 µM) of 0.203 and a relative viability (NCI-H3122; first compound 0.0002 µM) of 0.993. For the same molecule, the relative viability (NCI-H3122; first compound 0.000632 µM) was 0.901, the relative viability (NCI-H3122; first compound 0.002 µM) was 0.761 and the relative viability (NCI-H3122; first compound 0.006325 µM) was 0.16. The relative viability (NCI-H3122; first compound 0.02 µM) was 0.106, the relative viability (NCI-H1993; first compound 0.0002 µM) was 0.78 and the relative viability (NCI-H1993; first compound 0.000632 µM) was 0.803. The relative viability (NCI-H1993; first compound 0.002 µM) was 0.659, the relative viability (NCI-H1993; first compound 0.006325 µM) was 0.671 and the relative viability (NCI-H1993; first compound 0.02 µM) was 0.51. The relative viability (HARA; first compound 0.0002 µM) was 0.709, the relative viability (HARA; first compound 0.000632 µM) was 0.128 and the relative viability (HARA; first compound 0.002 µM) was 0.146. The relative viability (HARA; first compound 0.006325 µM) was 0.0748, the relative viability (HARA; first compound 0.02 µM) was 0.0559 and the relative viability (NCI-H1944; first compound 0.0002 µM) was 0.85. It also gave a relative viability (NCI-H1944; first compound 0.000632 µM) of 0.86, a relative viability (NCI-H1944; first compound 0.002 µM) of 0.692 and a relative viability (NCI-H1944; first compound 0.006325 µM) of 0.31. It also gave a relative viability (NCI-H1944; first compound 0.02 µM) of 0.151, a relative viability (PC-3 [JPC-3]; first compound 0.0002 µM) of 0.962 and a relative viability (PC-3 [JPC-3]; first compound 0.000632 µM) of 0.945. It also gave a relative viability (PC-3 [JPC-3]; first compound 0.002 µM) of 0.544, a relative viability (PC-3 [JPC-3]; first compound 0.006325 µM) of 0.179 and a relative viability (PC-3 [JPC-3]; first compound 0.02 µM) of 0.149. It also gave a relative viability (EMC-BAC-2; first compound 0.0002 µM) of 1.02, a relative viability (EMC-BAC-2; first compound 0.000632 µM) of 0.948 and a relative viability (EMC-BAC-2; first compound 0.002 µM) of 0.36. The relative viability (EMC-BAC-2; first compound 0.006325 µM) was 0.348, the relative viability (EMC-BAC-2; first compound 0.02 µM) was 0.205 and the relative viability (NCI-H2228; first compound 0.0002 µM) was 0.785. It also gave a relative viability (NCI-H2228; first compound 0.000632 µM) of 0.222, a relative viability (NCI-H2228; first compound 0.002 µM) of 0.185 and a relative viability (NCI-H2228; first compound 0.006325 µM) of 0.145. The relative viability (NCI-H2228; first compound 0.02 µM) was 0.137, the relative viability (NCI-H322M; first compound 0.0002 µM) was 0.928 and the relative viability (NCI-H322M; first compound 0.000632 µM) was 0.949. The relative viability (NCI-H322M; first compound 0.002 µM) was 0.956, the relative viability (NCI-H322M; first compound 0.006325 µM) was 0.702 and the relative viability (NCI-H322M; first compound 0.02 µM) was 0.463. It also gave a relative viability (SK-MES-1; first compound 0.0002 µM) of 0.84, a relative viability (SK-MES-1; first compound 0.000632 µM) of 0.923 and a relative viability (SK-MES-1; first compound 0.002 µM) of 0.508. It also gave a relative viability (SK-MES-1; first compound 0.006325 µM) of 0.368.
